What all share (type): functional, cell-based
The test system of test [1] is SiHa. Kind of test: Antiproliferative activity against human SiHa cells after 48 hrs by SRB assay. Background: The SRB assay estimates cell density from bound dye.
The test system of test [2] is Plasmodium falciparum. Kind of test: Anti-plasmodial activity against chloroquine-sensitive Plasmodium falciparum 3D7 infected in human erythrocytes after 50 hrs by SYBR green dye based fluorescence assay. Conditions: 3D7, 50 h.
Test [3] concerns MDA-MB-231. The test can be described thus: Antiproliferative activity against human MDA-MB-231 cells after 48 hrs by SRB assay. To be noted: MDA-MB-231, 48 h.
Test [4] concerns PANC-1. Kind of test: Antiproliferative activity against human PANC1 cells after 48 hrs by SRB assay. To be noted: PANC-1, 48 h.
Test [5] has as its system IMR-32. Kind of test: Antiproliferative activity against human IMR32 cells after 48 hrs by SRB assay. To be noted: IMR-32, 48 h.

Structures are written as SMILES.

In ChEMBL document CHEMBL4020729, “Synthesis and evaluation of anti-plasmodial and cytotoxic activities of epoxyazadiradione derivatives” (Eur J Med Chem, 2017) one finds IC50 data, which are given here for eleven compounds.

As to `CC(=O)O[C@@H]1C[C@H]2C(C)(C)C(=O)C=C[C@]2(C)[C@H]2CC[C@@]3(C)[C@H](c4ccoc4)/C(=N\OCc4cn(-c5ccc(C)cc5)nn4)[C@H]4O[C@]43[C@@]21C`, the IC50 was greater than 100 µM in test [1]; 4.2 µM in test [2]; greater than 100 µM in test [3]; greater than 100 µM in test [4]; greater than 100 µM in test [5].
In the case of `COc1ccc(C[C@@H](O)c2cc(OC)c(OC)c(OC)c2)cc1O` [COMBRETASTATIN], the concentration for half-maximal inhibition (IC50) was determined as 2 µM in test [1], 2.3 µM in test [3], 3.5 µM in test [4] and 2.4 µM in test [5].
Turning to `CCCC(=O)O/N=C1/[C@H]2O[C@]23[C@@]2(C)[C@H](CC[C@@]3(C)[C@@H]1c1ccoc1)[C@@]1(C)C=CC(=O)C(C)(C)[C@@H]1C[C@H]2OC(C)=O`, the IC50 in test [1] was greater than 100 µM; in test [2], 9.3 µM; in test [3], greater than 100 µM; in test [4] it was greater than 100 µM; in test [5] it was greater than 100 µM.
Regarding `CC(=O)O[C@@H]1C[C@H]2C(C)(C)C(=O)C=C[C@]2(C)[C@H]2CC[C@@]3(C)[C@H](c4ccoc4)/C(=N\OC(=O)c4ccc(Br)cc4)[C@H]4O[C@]43[C@@]21C`, the IC50 in test [1] is greater than 100 µM; in test [2] it was 9.4 µM; in test [3], greater than 100 µM; in test [4] it was greater than 100 µM; in test [5], greater than 100 µM.
`CC(=O)O[C@@H]1C[C@H]2C(C)(C)C(=O)C=C[C@]2(C)[C@H]2CC[C@@]3(C)[C@H](c4ccoc4)/C(=N\OC(=O)c4ccccc4Br)[C@H]4O[C@]43[C@@]21C`: the concentration for half-maximal inhibition (IC50) in test [1] was greater than 100 µM; in test [2] it was 12.2 µM; in test [3], greater than 100 µM; in test [4] it was greater than 100 µM; in test [5], greater than 100 µM.
As to `CC1(C)C(=O)C=C[C@]2(C)[C@H]3CC[C@@]4(C)[C@H](c5ccoc5)/C(=N\O)[C@H]5O[C@]54[C@]3(C)[C@H](O)C[C@@H]12`, the IC50 in test [1] is greater than 100 µM; in test [2], 20 µM; in test [3], greater than 100 µM; in test [4], greater than 100 µM; in test [5] it was greater than 100 µM.
For the compound `COc1cccc(C(=O)O/N=C2/[C@H]3O[C@]34[C@@]3(C)[C@H](CC[C@@]4(C)[C@@H]2c2ccoc2)[C@@]2(C)C=CC(=O)C(C)(C)[C@@H]2C[C@H]3OC(C)=O)c1`, the IC50 in test [1] is greater than 100 µM; in test [2] it was 8 µM; in test [3] it was greater than 100 µM; in test [4], greater than 100 µM; in test [5] it was greater than 100 µM.
For the compound `CC(=O)O[C@@H]1C[C@H]2C(C)(C)C(=O)CC[C@]2(C)[C@H]2CC[C@@]3(C)[C@H](C4CCOC4)C(=O)[C@H]4O[C@]43[C@@]21C` (some centres undefined), the IC50 in test [1] is greater than 100 µM; in test [2], 78.7 µM; in test [3], greater than 100 µM; in test [4], greater than 100 µM; in test [5] it was greater than 100 µM.
Regarding `CCC(=O)Nc1ccc(-n2cc(CO/N=C3/[C@H]4O[C@]45[C@@]4(C)[C@H](CC[C@@]5(C)[C@@H]3c3ccoc3)[C@@]3(C)C=CC(=O)C(C)(C)[C@@H]3C[C@H]4OC(C)=O)nn2)cc1`, the IC50 in test [1] is greater than 100 µM; in test [2], 6.7 µM; in test [3], greater than 100 µM; in test [4], greater than 100 µM; in test [5], greater than 100 µM.
As to `CCC(=O)O[C@@H]1C[C@H]2C(C)(C)C(=O)C=C[C@]2(C)[C@H]2CC[C@@]3(C)[C@H](c4ccoc4)C(=O)[C@H]4O[C@]43[C@@]21C`, inhibition in test [2] was half-maximal at 7.1 µM (IC50).
For the compound `COc1cccc2c1C(=O)c1c(O)c3c(c(O)c1C2=O)C[C@@](O)(C(=O)CO)C[C@@H]3O[C@H]1C[C@H](N)[C@H](O)[C@H](C)O1` [DOXORUBICIN], the IC50 was 1.9 µM in test [1], 1.8 µM in test [3], 3.2 µM in test [4] and 3.2 µM in test [5].

The IC50 is the concentration at which inhibition is half-maximal. A low value points to greater potency.
